Measured values from US6706740B2, “Fungicidal heterocyclic aromatic amides and their compositions, methods of use and preparation” (Dow AgroSciences LLC, priority 1999, dated 2004).

System: Rhizoctonia solani (RHIZSO)
Experiment: microbe, parasite or virus in culture
Assay type: cell-based
Settings: Rhizoctonia solani, read-out: RHIZSO in vitro Growth Inhibition

Compound	inhibition at 25 ppm
COC(=O)C(COC(=O)C(COC(=O)C(C)C)Cc1ccccc1)NC(=O)c1nccc(OC)c1OC(C)=O (stereo not drawn) [Compound 587]	< 80%
CC1(C)CC(NC(=O)c2ncccc2O)CC(C)(C2CC2)C1 (stereo not drawn) [Compound 204]	< 80%
COc1ccnc(C(=O)NC2CC(C)(C)C(Oc3cc(C(F)(F)F)cc(C(F)(F)F)n3)C(C)(C)C2)c1O (stereo not drawn) [Compound 272]	< 80%

System: Septoria tritici—SEPTTR
Experiment: Leaf Blotch of Wheat, in vivo whole plant, 24 Hour Protectant
Settings: 100 ppm spray, 24 hour protectant, wheat; control of fungal infection vs untreated plants

Compound	SEPTTR in vivo 1 Day Protectant
COc1ccnc(C(=O)NC2CC(C)(C)C(Oc3cc(C(F)(F)F)cc(C(F)(F)F)n3)C(C)(C)C2)c1O (stereo not drawn) [Compound 272]	+ +

Same assay, conditions: Zymoseptoria tritici, 24 h, 100 ppm spray, 24 hour protectant, wheat; control of fungal infection vs untreated plants; read-out: SEPTTR in vivo 1 Day Protectant

Compound	pest or weed control at 100 ppm
CC1(C)CC(NC(=O)c2ncccc2O)CC(C)(C2CC2)C1 (stereo not drawn) [Compound 204]	25 to 74%

Same assay, conditions: Zymoseptoria tritici, 24 h, wheat plants sprayed at 100 ppm, inoculated after 24 hours; control of fungal infection vs untreated plants; read-out: SEPTTR in vivo 1 Day Protectant

Compound	pest or weed control at 100 ppm
COC(=O)C(COC(=O)C(COC(=O)C(C)C)Cc1ccccc1)NC(=O)c1nccc(OC)c1OC(C)=O (stereo not drawn) [Compound 587]	25 to 74%

System: Erysiphe graminis—ERYSGT
Experiment: Powdery Mildew of Wheat, in vivo whole plant, 24 Hour Protectant
Settings: Erysiphe; 100 ppm spray, 24 hour protectant, wheat; control of fungal infection vs untreated plants; read-out: ERYSGT in vivo 1 Day Protectant

Compound	pest or weed control at 100 ppm
CC1(C)CC(NC(=O)c2ncccc2O)CC(C)(C2CC2)C1 (stereo not drawn) [Compound 204]	< 25%
COc1ccnc(C(=O)NC2CC(C)(C)C(Oc3cc(C(F)(F)F)cc(C(F)(F)F)n3)C(C)(C)C2)c1O (stereo not drawn) [Compound 272]	< 25%

Same assay, conditions: Erysiphe; wheat plants sprayed at 100 ppm, inoculated after 24 hours; control of fungal infection vs untreated plants; read-out: ERYSGT in vivo 1 Day Protectant

Compound	pest or weed control at 100 ppm
COC(=O)C(COC(=O)C(COC(=O)C(C)C)Cc1ccccc1)NC(=O)c1nccc(OC)c1OC(C)=O (stereo not drawn) [Compound 587]	< 25%

System: Stagonospora nodorum (Leptosphaeria nodorum—LEPTNO)
Experiment: In vitro fungal growth inhibition, Stagonospora nodorum (LEPTNO)
Assay type: cell-based
Settings: Leptosphaeria; 25 ppm in growth medium; read-out: LEPTNO in vitro Growth Inhibition

Compound	inhibition at 25 ppm
CC1(C)CC(NC(=O)c2ncccc2O)CC(C)(C2CC2)C1 (stereo not drawn) [Compound 204]	< 80%
COc1ccnc(C(=O)NC2CC(C)(C)C(Oc3cc(C(F)(F)F)cc(C(F)(F)F)n3)C(C)(C)C2)c1O (stereo not drawn) [Compound 272]	< 80%

Same assay, conditions: Leptosphaeria; 25 ppm in the growth medium; read-out: LEPTNO in vitro Growth Inhibition

Compound	inhibition at 25 ppm
COC(=O)C(COC(=O)C(COC(=O)C(C)C)Cc1ccccc1)NC(=O)c1nccc(OC)c1OC(C)=O (stereo not drawn) [Compound 587]	< 80%

System: Phytophthora infestans (PHYTIN)
Experiment: microbe, parasite or virus in culture
Assay type: cell-based
Settings: Phytophthora infestans, read-out: PHYTIN in vitro Growth Inhibition

Compound	inhibition at 25 ppm
COC(=O)C(COC(=O)C(COC(=O)C(C)C)Cc1ccccc1)NC(=O)c1nccc(OC)c1OC(C)=O (stereo not drawn) [Compound 587]	< 80%
CC1(C)CC(NC(=O)c2ncccc2O)CC(C)(C2CC2)C1 (stereo not drawn) [Compound 204]	< 80%
COc1ccnc(C(=O)NC2CC(C)(C)C(Oc3cc(C(F)(F)F)cc(C(F)(F)F)n3)C(C)(C)C2)c1O (stereo not drawn) [Compound 272]	< 80%

System: Magnaporthe grisea (Pyricularia oryzae—PYRIOR)
Experiment: microbe, parasite or virus in culture
Assay type: cell-based
Settings: Pyricularia oryzae, read-out: PYRIOR in vitro Growth Inhibition

Compound	inhibition at 25 ppm
COC(=O)C(COC(=O)C(COC(=O)C(C)C)Cc1ccccc1)NC(=O)c1nccc(OC)c1OC(C)=O (stereo not drawn) [Compound 587]	< 80%
CC1(C)CC(NC(=O)c2ncccc2O)CC(C)(C2CC2)C1 (stereo not drawn) [Compound 204]	< 80%
COc1ccnc(C(=O)NC2CC(C)(C)C(Oc3cc(C(F)(F)F)cc(C(F)(F)F)n3)C(C)(C)C2)c1O (stereo not drawn) [Compound 272]	< 80%

System: Ustilago maydis (USTIMA)
Experiment: microbe, parasite or virus in culture
Assay type: cell-based
Settings: Mycosarcoma maydis, read-out: USTIMA in vitro Growth Inhibition

Compound	inhibition at 25 ppm
COC(=O)C(COC(=O)C(COC(=O)C(C)C)Cc1ccccc1)NC(=O)c1nccc(OC)c1OC(C)=O (stereo not drawn) [Compound 587]	< 80%
CC1(C)CC(NC(=O)c2ncccc2O)CC(C)(C2CC2)C1 (stereo not drawn) [Compound 204]	< 80%
COc1ccnc(C(=O)NC2CC(C)(C)C(Oc3cc(C(F)(F)F)cc(C(F)(F)F)n3)C(C)(C)C2)c1O (stereo not drawn) [Compound 272]	< 80%

System: Leptosphaeria nodorum—LEPTNO
Experiment: Glume Blotch of Wheat, in vivo whole plant, 24 Hour Protectant
Settings: Leptosphaeria; 100 ppm spray, 24 hour protectant, wheat; control of fungal infection vs untreated plants; read-out: LEPTNO in vivo 1 Day Protectant

Compound	pest or weed control at 100 ppm
CC1(C)CC(NC(=O)c2ncccc2O)CC(C)(C2CC2)C1 (stereo not drawn) [Compound 204]	< 25%
COc1ccnc(C(=O)NC2CC(C)(C)C(Oc3cc(C(F)(F)F)cc(C(F)(F)F)n3)C(C)(C)C2)c1O (stereo not drawn) [Compound 272]	25 to 74%

Same assay, conditions: Leptosphaeria; wheat plants sprayed at 100 ppm, inoculated after 24 hours; control of fungal infection vs untreated plants; read-out: LEPTNO in vivo 1 Day Protectant

Compound	pest or weed control at 100 ppm
COC(=O)C(COC(=O)C(COC(=O)C(C)C)Cc1ccccc1)NC(=O)c1nccc(OC)c1OC(C)=O (stereo not drawn) [Compound 587]	25 to 74%

System: Phytophthora infestans—PHYTIN
Experiment: whole plant or invertebrate
Assay type: in vivo
Settings: Phytophthora, in Solanum lycopersicum, 24 h, read-out: PHYTIN in vivo 1 Day Protectant

Compound	pest or weed control at 100 ppm
COC(=O)C(COC(=O)C(COC(=O)C(C)C)Cc1ccccc1)NC(=O)c1nccc(OC)c1OC(C)=O (stereo not drawn) [Compound 587]	< 25%
CC1(C)CC(NC(=O)c2ncccc2O)CC(C)(C2CC2)C1 (stereo not drawn) [Compound 204]	< 25%
COc1ccnc(C(=O)NC2CC(C)(C)C(Oc3cc(C(F)(F)F)cc(C(F)(F)F)n3)C(C)(C)C2)c1O (stereo not drawn) [Compound 272]	< 25%

System: Mycosphaerella graminicola (Septoria tritici—SEPTTR)
Experiment: In vitro fungal growth inhibition, Mycosphaerella graminicola (SEPTTR)
Assay type: cell-based
Settings: Zymoseptoria tritici; 25 ppm in growth medium; read-out: SEPTTR in vitro Growth Inhibition

Compound	inhibition at 25 ppm
CC1(C)CC(NC(=O)c2ncccc2O)CC(C)(C2CC2)C1 (stereo not drawn) [Compound 204]	< 80%
COc1ccnc(C(=O)NC2CC(C)(C)C(Oc3cc(C(F)(F)F)cc(C(F)(F)F)n3)C(C)(C)C2)c1O (stereo not drawn) [Compound 272]	> 80%

Same assay, conditions: Zymoseptoria tritici; 25 ppm in the growth medium; read-out: SEPTTR in vitro Growth Inhibition

Compound	inhibition at 25 ppm
COC(=O)C(COC(=O)C(COC(=O)C(C)C)Cc1ccccc1)NC(=O)c1nccc(OC)c1OC(C)=O (stereo not drawn) [Compound 587]	< 80%

System: Puccinia recondita—PUCCRT
Experiment: Brown Rust of Wheat, in vivo whole plant, 24 Hour Protectant
Settings: Puccinia; 100 ppm spray, 24 hour protectant, wheat; control of fungal infection vs untreated plants; read-out: PUCCRT in vivo 1 Day Protectant

Compound	pest or weed control at 100 ppm
CC1(C)CC(NC(=O)c2ncccc2O)CC(C)(C2CC2)C1 (stereo not drawn) [Compound 204]	< 25%
COc1ccnc(C(=O)NC2CC(C)(C)C(Oc3cc(C(F)(F)F)cc(C(F)(F)F)n3)C(C)(C)C2)c1O (stereo not drawn) [Compound 272]	< 25%

Same assay, conditions: Puccinia; wheat plants sprayed at 100 ppm, inoculated after 24 hours; control of fungal infection vs untreated plants; read-out: PUCCRT in vivo 1 Day Protectant

Compound	pest or weed control at 100 ppm
COC(=O)C(COC(=O)C(COC(=O)C(C)C)Cc1ccccc1)NC(=O)c1nccc(OC)c1OC(C)=O (stereo not drawn) [Compound 587]	25 to 74%
